# “Also recorded” adds a separate entry of the source. Residues, ends and D or L forms follow the SMILES beside them.
# Tests used:
# Type in all cases: cell-based
# S. epidermidis [1] = experiment: Anti-bacterial activity in spiked platelets; conditions: even at high concentrations
# Procedure: (§1) The anti-bacterial activity of the peptide in the presence of homologous plasma and platelets were assessed. Platelet Concentrates (PCs) in bags were obtained and stored at room temperature as described earlier (Mohan, K. V. et al., (2010) Transfusion 50, 166-173). Plasma was isolated from the PC bag by collecting 25 ml of PCs and subjecting the sample to a low speed centrifugation step to separate PLT-rich plasma from plasma. For assays log phase cultures of bacteria grown in Luria-Bertani (LB) broth were centrifuged at 3000×g and suspended in 1×PBS pH7.4. Bacterial titers were estimated by measuring the optical density (OD) and microscopy. Approximately 10^5 CFU/ml of each bacterial strain was spiked into 0.1 ml of plasma or platelets and incubated with peptide at concentrations ranging from 50 to 0 μg/ml. Incubation was carried out at room temperature for 2 h on a shaker. At the end of 2-h exposure period, a fixed volume of the suspension was plated on NA plates, and incubating at 37° C. for 18 to 24 h. Bactericidal activity was measured by log-reduction by viable bacteria.
# S. aureus [2] = experiment: Anti-bacterial activity in spiked platelets; conditions: even at high concentrations
# Procedure: as §1
# K pneumoniae [3] = experiment: Anti-bacterial activity in spiked platelets; conditions: 2 h
# Procedure: as §1
# E. coli [4] = experiment: Anti-bacterial activity in spiked platelets; conditions: 2 h
# Procedure: as §1
# P. aeruginosa [5] = experiment: 2 h incubation of mid-logarithmic cultures with peptide, CFU on NA plates; conditions: peptide 12.5, 25 and 50 μg/ml, inoculum 10^5 CFU/ml
# Procedure: (§2) Mid-logarithmic phase cultures of bacteria with an inoculum of 10^5 CFU/ml were incubated with peptide concentrations ranging from 0 to 50 μg/ml in a shaker incubator for 2 h following which the samples were plated on NA agar plates and CFU determined.
# E. coli [6] = experiment: as above; conditions: peptide 12.5, 25 and 50 μg/ml, inoculum 10^5 CFU/ml
# Procedure: as §2
# P. aeruginosa [7] = experiment: Cytoplasmic membrane depolarization assay (diSC3-5) with parallel CFU plating; conditions: EC5 at 8 μg/ml and 16 μg/ml
# Procedure: (§3) Membrane depolarization activity (Δψ) of the peptide was determined with intact E. coli and P. aeruginosa cells and the membrane potential-sensitive fluorescent dye, 3,3′-dipropylthiadicarbocyanine Iodide (diSC (3)5) (Invitrogen, Oregon), according to described methods (Sims, P. J., et al (1974) Biochemistry 13, 3315-3330). Briefly, bacterial cells of mid-logarithmic phase were harvested by centrifugation and washed twice with HEPES buffer (5 mM HEPES, 5 mM glucose, pH 7.6). The cells were suspended in the same buffer to an OD of 0.05. The cell suspension was incubated with […] diSC (3)5 until maximal uptake of the dye. 100 mM KCl was added to equilibrate the cytoplasmic and external potassium ion concentration of peptide, and fluorescence was monitored at an excitation wavelength of 622 nm and an emission wavelength of 670 nm. Polymyxin B was used as a positive control and S. aureus cells were used as negative control. Simultaneously the cells were plated on NA plates and incubated at 37° C. overnight to assess the number of CFU.
# (§4) Cytoplasmic depolarization assay(Δψ) was performed using the membrane potential sensitive dye 3,3′-dipropylthiadicarbocyanine iodide (diSC3-5) (Zang, L. et al., (2001) J. Biol. Chem. 276, 35714-35722). This dye can cross the outer membrane of the bacterial cell and become concentrated in the cytoplasmic membrane and thereby it self-quenches its own fluorescence. Upon addition of a membrane-permeabilizing agent the dye is released with consequent increase in the fluorescence. EC5 at 8 μg/ml and 16 μg/ml caused rapid depolarization of the cytoplasmic membrane in both E. coli and P. aeruginosa resulting in the release of diSC3-5 within 5 min (FIG. 9C). […] However Polymyxin B even at its MIC of 0.5 μg/ml caused slow release of diSC3-5 when compared to EC5.
# E. coli [8] = experiment: as above; conditions: EC5 at 8 μg/ml and 16 μg/ml
# Procedure: as §3, §4
# B. cereus [9] = experiment: Anti-bacterial activity in spiked plasma; conditions: even at 50 μg/ml
# Procedure: as §1
# S. epidermidis [10] = experiment: Anti-bacterial activity in spiked plasma; conditions: even at 50 μg/ml
# Procedure: as §1
# S. aureus [11] = experiment: Anti-bacterial activity in spiked plasma; conditions: even at 50 μg/ml
# Procedure: as §1
# P. aeruginosa [12] = experiment: Anti-bacterial activity in spiked plasma; conditions: 2 h
# Procedure: as §1
# K pneumoniae [13] = experiment: Anti-bacterial activity in spiked plasma; conditions: 2 h
# Procedure: as §1
# E. coli [14] = experiment: Anti-bacterial activity in spiked plasma; conditions: 2 h
# Procedure: as §1
# B. cereus [15] = experiment: MIC by standard dilution assay (CLSI)
# Procedure: (§5) In vitro anti-bacterial activity of EC5. The test microorganisms mentioned earlier in the experimental procedures were used to evaluate the bactericidal activity of EC5 peptide. The minimum inhibitory concentrations (MICs) of the peptide were determined by standard dilution assay as recommended by Clinical and Laboratory Standard Institutes (CLSI) guidelines (Azad, M. A., et al., (2011) Antimicrob. Agents Chemother. 55, 2137-2145). Bacteria were grown to mid-logarithmic phase in cation-supplemented Mueller-Hinton broth (MHB) (Becton Dickinson, Sparks, Md.) on an orbital shaker (37° C.) and diluted to a 0.5 McFarland standard to a final volume of 1 ml. Decreasing concentrations of the peptide were incubated with the microorganisms. Results were recorded by visual inspection after 24 h of incubation at 37° C. Assay was repeated three separate times to ensure reproducibility. […] EC5 concentrations 0x, 0.5x, 1x, and 2×MIC were incubated with logarithmic phase of bacteria of approximately 10^5 CFU/ml in an orbital shaker for 48 h at 37° C. Samples were drawn and plated on NA plates. Polymyxin B was used as a positive control and peptide with no anti-bacterial activity from our previous studies was used as a negative control.
# S. epidermidis [16] = experiment: MIC by standard dilution assay (CLSI)
# Procedure: as §5
# Gram-positive strains = experiment: MIC by standard dilution assay (CLSI)
# Procedure: as §5
# S. aureus [17] = experiment: MIC by standard dilution assay (CLSI)
# Procedure: as §5
# S. aureus [18] = experiment: Cytoplasmic membrane depolarization assay (diSC3-5); conditions: EC5 64 μg/ml; after 45 min
# Procedure: as §3, with “Polymyxin B was used as a positive control and S. aureus cells were used as negative control. Simultaneously the cells were plated on NA plates and incubated at 37° C. overnight to assess the number of CFU.” left out
# Cytoplasmic depolarization assay(Δψ) was performed using the membrane potential sensitive dye 3,3′-dipropylthiadicarbocyanine iodide (diSC3-5) (Zang, L. et al., (2001) J. Biol. Chem. 276, 35714-35722). This dye can cross the outer membrane of the bacterial cell and become concentrated in the cytoplasmic membrane and thereby it self-quenches its own fluorescence. Upon addition of a membrane-permeabilizing agent the dye is released with consequent increase in the fluorescence. […]
smiles,measurement,setting,value
"CC[C@H](C)[C@H](NC(=O)[C@H](CCCCN)NC(=O)[C@H](CCCNC(=N)N)NC(=O)[C@H](Cc1ccccc1)NC(=O)[C@H](CC(C)C)NC(=O)[C@H](CC(C)C)NC(=O)[C@@H](N)CCCNC(=N)N)C(=O)N[C@@H](CCCNC(=N)N)C(=O)N[C@@H](CCCNC(=N)N)C(=O)N[C@@H](CC(C)C)C(=O)N[C@@H](CCCCN)C(=O)N[C@@H](CCCNC(=N)N)C(=O)O [EC5, RLLFRKIRRLKR] (H-RLLFRKIRRLKR-OH; N-terminus and C-terminus assumed)",reduction of S. epidermidis in platelets,S. epidermidis [1],No significant reduction
same,reduction of S. aureus in platelets,S. aureus [2],No significant reduction
same,reduction of K pneumoniae in platelets,K pneumoniae [3]; EC5 12.5 μg/ml,1 log10CFU/m
same,reduction of K pneumoniae in platelets,K pneumoniae [3]; EC5 25 μg/ml,1.5 log10CFU/m
same,reduction of K pneumoniae in platelets,K pneumoniae [3]; EC5 50 μg/ml,2.5 log10CFU/m
same,reduction of E. coli in platelets,E. coli [4]; EC5 12.5 μg/ml,4.5 log10 CFU/ml
same,E. coli colonies in platelets,E. coli [4]; EC5 50 and 25 μg/ml,no detectable E. coli colonies; also recorded: complete inhibition
same,reduction of P. aeruginosa,P. aeruginosa [5],5 log10 CFU/ml
same,reduction of E. coli,E. coli [6],5 log10 CFU/ml
same,time to complete inhibition of CFU,P. aeruginosa [7],≤ 5 min
same,time to release of diSC3-5 (depolarization of the cytoplasmic membrane),P. aeruginosa [7],≤ 5 min
same,time to complete inhibition of CFU,E. coli [8],≤ 5 min
same,time to release of diSC3-5 (depolarization of the cytoplasmic membrane),E. coli [8],≤ 5 min
same,reduction of B. cereus in plasma,B. cereus [9],failed to cause a significant reduction
same,reduction of S. epidermidis in plasma,S. epidermidis [10],failed to cause a significant reduction
same,reduction of S. aureus in plasma,S. aureus [11],failed to cause a significant reduction
same,reduction of P. aeruginosa in plasma,P. aeruginosa [12]; EC5 12.5 μg/ml,~3 log10 CFU/ml
same,reduction of P. aeruginosa in plasma,P. aeruginosa [12]; EC5 25 μg/ml,around 4 log10 CFU/ml
same,"bactericidal activity in homologous plasma, in words",P. aeruginosa [12]; EC5 50 μg/ml,inhibited
same,reduction of P. aeruginosa in plasma,P. aeruginosa [12]; EC5 50 μg/ml,around 5 log10 CFU/ml
same,reduction of K pneumoniae in plasma,K pneumoniae [13]; EC5 25 μg/ml,around 1.5 log10
same,reduction of K pneumoniae in plasma,K pneumoniae [13]; EC5 50 μg/ml,around 2.5 log10
same,reduction of E. coli in plasma,E. coli [14]; EC5 12.5 μg/ml,3.5 log10
same,reduction of E. coli in plasma,E. coli [14]; EC5 25 μg/ml,4.5 log10
same,"bactericidal activity in homologous plasma, in words",E. coli [14]; EC5 50 μg/ml,inhibited
same,reduction of E. coli in plasma,E. coli [14]; EC5 50 μg/ml,around 5 log10 CFU/ml
same,activity against B. cereus,B. cereus [15],not active
same,activity against S. epidermidis,S. epidermidis [16],not active
same,activity against Gram-positive strains,Gram-positive strains,no activity
same,activity against S. aureus,S. aureus [17],not active
same,release of diSC3-5 from S. aureus,S. aureus [18],no trace of release
